# Measured values published in publication PMC6826616, “Topical 2′-Hydroxyflavanone for Cutaneous Melanoma” (Cancers, 2019).
# Read-outs that look alike come from different tables or passages of the source.
# Experiments:
# B16-F0 cells [1] = assay: MTT cytotoxicity assay, B16-F0; format: cell-based; details: Mus musculus, B16F0
# Source text: We studied the growth-inhibitory effects of 2HF on the B16-F0 and B16-F10 murine melanoma cell lines as well as on the SK-MEL-24 human melanoma cell line. B16-F10 and SK-MEL-24 have been shown in previous studies to be highly resistant to treatment and much more invasive than B16-F0 [32]. […] The absorption value measured upon reduction of the MTT dye by functional mitochondria is an indirect measure of cell number that cannot distinguish inhibited cell proliferation from apoptotic or necrotic cell death. By counting viable (trypan-blue dye-excluding) cells using a hemacytometer, we verified that 2HF did indeed cause cell death.
# Figure 1 Mouse and human melanoma cell survival following 2′-hydroxyflavanone (2HF) treatment.
# The IC50 of 2HF on B16-F0, B16-F10, and SK-MEL-24 cells was determined by MTT cytotoxicity assay. Cells were harvested and Trypan Blue dye exclusion test was used to determine the number of viable cells present in a cell suspension using a hemocytometer. The cell suspension was diluted to 5 × 10^4 cells/mL with Dulbecco’s Modified Eagle’s Medium (DMEM) complete medium and 5000 cells/well were plated in 96-well plates. After 24 h incubation at 37 °C, cells were treated with 2HF concentrations ranging from 0–200 µM (8 replicates per plate). After 48 or 72 h incubation, 40 µL of MTT (5 mg/mL) solution was added. After 4 h incubation, the plate was centrifuged at 700× g for 5 min and medium was aspirated completely. Then, 50 µL DMSO was added to each well to dissolve the purple precipitate on the rocking platform for about 15 min. The absorbance was then measured at 490 nm using a 96-well microplate reader (Spectramax Plus, Molecular Devices, Inc, San Jose, CA, USA).
# B16-F0 cells [2] = assay: Western blot densitometry of whole-cell lysates, B16-F0; format: cell-based, mouse; details: 48 h
# Description: B16-F0, […], and SK-MEL-24 cells were treated for 24 h with vehicle, 50 µM, and 100 µM 2HF. Cells were harvested and lysates prepared for Western blot using a radioimmunoprecipitation assay (RIPA) buffer with a protease (complete ULTRA) and phosphatase inhibitor (PhosSTOP) cocktail (Sigma-Aldrich, St. Louis, MO, USA). Total cell lysates (25 µg/lane) were loaded on 4–12% bis-tris gels, with MES gel running buffer. Proteins were transferred to nitrocellulose membrane, and nonspecific binding was minimized with 1× clear milk blocking buffer +0.1%TWEEN 20 (ThermoFisher Scientific, Waltham, MA, USA) for 1 h at room temperature. All primary antibodies were purchased from Santa Cruz Biotechnology except mouse monoclonal, TNF-α (Invitrogen), (1:1000), in 1× clear milk +0.1% TWEEN 20 overnight at 4 °C. Secondary antibody from Santa Cruz Biotech (1:2000) was incubated for 1 h at room temperature in 1× clear milk, 0.1% TWEEN 20.
# Supplemental data for Fig. 2C. Caspase 9
# Numbers below of each blot represent protein 1.0 1.2 0.5 ND ND ND ND ND ND band intensity ratios to adequate controls after Procaspase 3 […]
# RAL BP- 1 and apoptosis enzymes in SK-Mel-24, B16F0 17kD Active caspase 3 […]
# 48h. Cells were plated in complete growth medium. After overnight, cells were treated with different doses of 2HF, and PARP-1 incubated for 48h. Total cell lysates (40 µg/lane) were […]
# buffer. Proteins were transferred to nitrocellulose C-terminal cleaved membrane, nonspecific binding was done in 1X clear milk, PARP~89kDa
# +0.1%T20 (Invitrogen) for 1h at room temperature. All primary antibodies were from (mouse monoclonal, 1.0 0.8 0.9 1.0 0.9 ND 1.0 1.1 ND Santacruze Biotechnology (1:1000), in 1X clear milk
# +0.1%T20 overnight in 40C. Secondary antibody from N-terminal cleaved
# Santacruze Biotech (1:2000) for 1h at room temperature in PARP~24kDa […]
# Supplemental Figure 7 Supplemental data for Fig. 5.
# B16F0 SK-Mel- 24 B16F10Numbers below of each blot represent protein band intensity ratios to adequate
# TNF-α Full blots are presented in next 4 figures. […]
# cells after treatment with 50, 100 µM 2HF for 48h.
# Raf-1 Raf-1 Cells were plated in complete growth medium. After overnight, cells were treated with different doses of 2HF, […]
# loaded on 4- 12% bis-tris gel, with 1X MES gel running p-MEK-1 p-MEK-1 buffer. Proteins were transferred to nitrocellulose membrane, nonspecific binding was done in 1X clear
# All primary antibodies were from (mouse monoclonal, MEKK15 MEKK15 except TNF-α (American Hamster), Santacruze
# 1.0 0.9 0.1 ND ND ND overnight in 40C. Secondary antibody from Santacruze Biotech (1:2000) for 1h at room temperature in 1X clear […]
# [3] = Blood counts and serum chemistry after topical 2HF; format: in vivo, B16-F0 melanoma-bearing C57B mice; details: topical 12 mg 2HF/0.1 mL PLO gel
# Description: Blood samples were collected from representative mice from the control and 2HF-treated with 12 mg/0.1 mL PLO gel topically each day for 8 weeks just before euthanasia. These samples were used for hematologic, hepatic, renal, and metabolic profiling. A Hemavet instrument (Drew Scientific, Dallas, TX, USA) was used for determination of hematologic parameters.
# [4] = Single dose pharmacokinetic study of 2HF; format: in vivo, Sprague Dawley male rats; details: male SD rats
# Description: Figure 7 Plasma concentration vs. time profile of 2HF in rats. Mean plasma concentration vs. time profile of 2HF following intravenous and oral administration of 2HF at 5 mg/kg and 10 mg/kg, respectively, to male SD rats (n = 3).
# Pharmacokinetic studies of 2HF were performed by GVK Biosciences Pvt. Ltd., Hyderabad, India in Sprague Dawley male rats (~280 g). Rats were dosed either orally through gastric gavage needle of 10 mg/kg 2HF (0.5% Methyl cellulose + 0.5% Tween80) or intravenous 5 mg/kg 2HF (in 10% DMSO). Then, 200–300 µL blood was collected at each time point and plasma was separated; 50 µL plasma sample was deproteinized with 200 µL of acetonitrile followed by centrifugation at 2000× g for 5 min and supernatant was analyzed for 2HF by LC-MS/MS. Pharmacokinetic parameters were calculated for individual animals by a non-compartmental model with Phoenix software version 8.1 (CERTARA, Princeton, NJ, USA).
compound,measurement,setting,value
"O=C1CC(c2ccccc2O)Oc2ccccc21 (centres unmarked) [2HF, 2′-hydroxyflavanone]",IC50,"B16-F0 cells [1]; MTT, 72 h, mean ±SD, n = 5, read-out: IC50 at 72 h (growth/survival)",38 ± 4 µM
same,IC50,"B16-F0 cells [1]; Table 1, agent alone, read-out: IC50",38.6 ± 1.61 µM
same,Active caspase 3 band intensity ratio to control (normalized against β-Actin),"B16-F0 cells [2]; B16F0, 50 µM 2HF",0.9
same,C-terminal cleaved PARP~89kDa band intensity ratio to control (normalized against β-Actin),"B16-F0 cells [2]; B16F0, 50 µM 2HF",0.9
same,MEKK15 band intensity ratio to control (normalized against β-Actin),"B16-F0 cells [2]; B16F0, 50 µM 2HF",1.0
same,N-terminal cleaved PARP~24kDa band intensity ratio to control (normalized against β-Actin),"B16-F0 cells [2]; B16F0, 50 µM 2HF",0.9
same,PARP-1 band intensity ratio to control (normalized against β-Actin),"B16-F0 cells [2]; B16F0, 50 µM 2HF",0.9
same,PKC α band intensity ratio to control (normalized against β-Actin),"B16-F0 cells [2]; B16F0, 50 µM 2HF",0.6
same,Procaspase 3 band intensity ratio to control (normalized against β-Actin),"B16-F0 cells [2]; B16F0, 50 µM 2HF",1.0
same,RAL BP-1 band intensity ratio to control (normalized against β-Actin),"B16-F0 cells [2]; B16F0, 50 µM 2HF",0.9
same,Raf-1 band intensity ratio to control (normalized against β-Actin),"B16-F0 cells [2]; B16F0, 50 µM 2HF",0.2
same,TNF-α band intensity ratio to control (normalized against β-Actin),"B16-F0 cells [2]; B16F0, 50 µM 2HF",0.4
same,p-MEK-1 band intensity ratio to control (normalized against β-Actin),"B16-F0 cells [2]; B16F0, 50 µM 2HF",0.8
same,p-PDGFR-β band intensity ratio to control (normalized against β-Actin),"B16-F0 cells [2]; B16F0, 50 µM 2HF",0.3
same,Active caspase 3 band intensity ratio to control (normalized against β-Actin),"B16-F0 cells [2]; B16F0, 100 µM 2HF",0.1
same,MEKK15 band intensity ratio to control (normalized against β-Actin),"B16-F0 cells [2]; B16F0, 100 µM 2HF",4.7
same,N-terminal cleaved PARP~24kDa band intensity ratio to control (normalized against β-Actin),"B16-F0 cells [2]; B16F0, 100 µM 2HF",0.1
same,PARP-1 band intensity ratio to control (normalized against β-Actin),"B16-F0 cells [2]; B16F0, 100 µM 2HF",0.8
same,PKC α band intensity ratio to control (normalized against β-Actin),"B16-F0 cells [2]; B16F0, 100 µM 2HF",0.2
same,Procaspase 3 band intensity ratio to control (normalized against β-Actin),"B16-F0 cells [2]; B16F0, 100 µM 2HF",0.5
same,RAL BP-1 band intensity ratio to control (normalized against β-Actin),"B16-F0 cells [2]; B16F0, 100 µM 2HF",0.3
same,p-MEK-1 band intensity ratio to control (normalized against β-Actin),"B16-F0 cells [2]; B16F0, 100 µM 2HF",0.8
same,"adverse effects on blood counts, renal function, or liver enzymes",[3],no adverse effects
same,oral bioavailability,[4]; 10 mg/kg oral vs 5 mg/kg IV,Poor
same,plasma concentrations orally compared with IV,[4]; 10 mg/kg oral vs 5 mg/kg IV,two log-order lower
same,clearance,[4]; after either oral or IV administration,rapid clearance
